Some test systems named below: MDA-MB-435; A549; NCI/ADR-RES; TK-10; UACC-257; SK-OV-3; U-251; PC-3; A498; SK-MEL-2; SNB-75; Hs-578T; T47D; UACC-62; MDA-N; HOP-62; M14; BT-549; NCI-H522; Malme-3M.
Common to all, as to experiment: NCI anticancer screen, dose series, 48 h

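Tested at 5 concentrations; 48 h exposure; 96-well plates; endpoints linearly interpolated, else capped at highest concentration. Here, GI50 denotes the concentration required for 50% inhibition of growth.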 Activity calls are given as the source filed them. No stated cut-off is given here; in the data, active = GI50 up to about 1.1 µM and inactive = higher.

`COC(=O)[C@H]1C=C[C@H](OC2OC(COC(C)=O)C(OC(C)=O)C(OC(C)=O)C2OC(C)=O)n2c(=O)n(-c3ccccc3)c(=O)n21` (stereo partly specified): the GI50 with MDA-MB-435 is 4.38 µM (inactive); with A549 it was 17.4 µM (inactive); in the assay with NCI/ADR-RES, 6.07 µM (inactive); with TK-10, 4.8 µM (inactive); in the assay on UACC-257, 7.52 µM (inactive); with SK-OV-3, 18.4 µM (inactive). The GI50 was 8.75 µM (inactive) in the assay with U-251; 10.7 µM (inactive) in the assay on PC-3; 4.97 µM (inactive) in the assay on A498; 12.1 µM (inactive) in the assay with SK-MEL-2; 12.1 µM (inactive) in the assay on SNB-75; 2.38 µM (inactive) with Hs-578T. For the same compound, the GI50 in the assay on T47D is 3.48 µM (inactive); in the assay with UACC-62, 1.54 µM (inactive); in the assay on MDA-N it was 4.68 µM (inactive); in the assay with HOP-62 it was 8.55 µM (inactive); in the assay with M14, 2.7 µM (inactive); in the assay on BT-549, 3.04 µM (inactive). Besides, the GI50 with NCI-H522 is 0.222 µM (active).

For the compound `Nc1ccc(-c2nc3ccccc3s2)cc1C#Cc1ccccc1`, the GI50 in the assay on MDA-MB-435 is 19.1 µM (inactive); in the assay on A549, 22.6 µM (inactive); in the assay on NCI/ADR-RES, 21.4 µM (inactive); in the assay on TK-10, 13.9 µM (inactive); with UACC-257, 16 µM (inactive); with SK-OV-3, 24.3 µM (inactive). The GI50 in the assay with U-251 was 20.1 µM (inactive); in the assay with PC-3, 18.5 µM (inactive); in the assay with A498 it was 21 µM (inactive); in the assay with SNB-75 it was 25.3 µM (inactive); with Hs-578T it was 21.5 µM (inactive); in the assay with T47D, 27 µM (inactive). Moreover, the GI50 in the assay on UACC-62 was 17.9 µM (inactive); with MDA-N, 17.9 µM (inactive); with Malme-3M, 12.2 µM (inactive); with HOP-62, 14.5 µM (inactive); with M14, 16.3 µM (inactive); with BT-549, 17.1 µM (inactive). Also, the GI50 in the assay with NCI-H522 is 18.9 µM (inactive).

With `CC(=O)OCC1OC(n2c(C)cc(C)c(C#N)c2=S)C(OC(C)=O)C(OC(C)=O)C1OC(C)=O` (stereo unspecified), the GI50 in the assay on MDA-MB-435, with A549, in the assay on NCI/ADR-RES, in the assay with TK-10, with UACC-257 and in the assay on U-251 was > 100 µM (inactive) in each case. Further, the GI50 in the assay on PC-3, in the assay on A498, with SK-MEL-2, with SNB-75, with Hs-578T and in the assay with T47D was > 100 µM (inactive) throughout. Besides, the GI50 in the assay with UACC-62, with MDA-N, in the assay with Malme-3M, with HOP-62, with M14 and in the assay with BT-549 was > 100 µM (inactive) in each case. Further, in the assay with NCI-H522, the GI50 was > 100 µM (inactive).

In the case of `COc1c(C)c(OCC=C(C)C)cc(CO)c1CO`, the GI50 with MDA-MB-435 was 55.3 µM (inactive); in the assay on A549 it was 47.5 µM (inactive); in the assay with NCI/ADR-RES, 26.3 µM (inactive); with TK-10, 89.5 µM (inactive); in the assay on UACC-257, 81.8 µM (inactive); with SK-OV-3, 97.3 µM (inactive). Moreover, the GI50 with U-251 is 50.1 µM (inactive); with PC-3 it was 36 µM (inactive); with A498, 44.1 µM (inactive); in the assay with SK-MEL-2, 71.4 µM (inactive); with SNB-75, 47.6 µM (inactive); in the assay with Hs-578T it was 44.1 µM (inactive). Further, the GI50 with T47D is 38.1 µM (inactive); with UACC-62, 60.8 µM (inactive); in the assay with MDA-N, 71.3 µM (inactive); with HOP-62 it was 56.5 µM (inactive); in the assay on M14, > 100 µM (inactive); in the assay with BT-549 it was 42.9 µM (inactive). In addition, in the assay with NCI-H522, the GI50 is 7.46 µM (inactive).

Take `CC1C2CC(CC23OCC(CCl)O3)C1(C)C` (stereo unspecified): the GI50 in the assay with MDA-MB-435, in the assay with A549, with NCI/ADR-RES, with TK-10, in the assay with UACC-257 and with SK-OV-3 was > 100 µM (inactive) each time. Also, the GI50 with PC-3, in the assay with A498, with SNB-75, with Hs-578T, in the assay with T47D and in the assay with UACC-62 was > 100 µM (inactive) throughout. Further, the GI50 with MDA-N, with Malme-3M, in the assay on HOP-62, in the assay with M14, in the assay with BT-549 and in the assay on NCI-H522 was > 100 µM (inactive) in each case.

As to `FC(F)(F)c1cccnc1Sc1nc2ccccc2s1`, the GI50 in the assay with MDA-MB-435, in the assay with A549, with NCI/ADR-RES, in the assay on TK-10, in the assay with UACC-257 and in the assay on U-251 was > 100 µM (inactive) each time. For the same compound, the GI50 in the assay on PC-3 is > 100 µM (inactive); with A498 it was > 100 µM (inactive); with SK-MEL-2, 20.7 µM (inactive); with SNB-75 it was 59.6 µM (inactive); in the assay with Hs-578T, 45.7 µM (inactive); in the assay on T47D it was > 100 µM (inactive). In addition, the GI50 in the assay on UACC-62 was > 100 µM (inactive); with MDA-N it was > 100 µM (inactive); in the assay on Malme-3M it was > 100 µM (inactive); in the assay on HOP-62, 57.8 µM (inactive); with M14 it was 37.6 µM (inactive); in the assay on BT-549, > 100 µM (inactive). Moreover, the GI50 in the assay with NCI-H522 was 80 µM (inactive).

Consider `CC(=O)C1=C(c2ccccc2)N(C2OC(CO)C(O)C(O)C2O)C(S)=C(C#N)C1c1ccc(Cl)cc1` (stereo unspecified), for which the GI50 is 23.6 µM (inactive) in the assay on MDA-MB-435; 39.4 µM (inactive) with A549; 31.4 µM (inactive) in the assay on NCI/ADR-RES; 52.7 µM (inactive) in the assay with TK-10; 25.4 µM (inactive) with UACC-257; 17.9 µM (inactive) in the assay with U-251. Besides, the GI50 with PC-3 was 22.1 µM (inactive); in the assay on A498 it was 38.6 µM (inactive); in the assay with SK-MEL-2, 12.9 µM (inactive); in the assay on SNB-75, 28.8 µM (inactive); in the assay with Hs-578T, 25.8 µM (inactive); in the assay on T47D, 10.3 µM (inactive). Further, the GI50 was 16.4 µM (inactive) with UACC-62; 25.8 µM (inactive) in the assay on MDA-N; 24.8 µM (inactive) in the assay with Malme-3M; 30.2 µM (inactive) in the assay on HOP-62; 21 µM (inactive) with M14; 15.9 µM (inactive) in the assay on BT-549. In addition, the GI50 in the assay on NCI-H522 was 23.7 µM (inactive).

Turning to `CCN(CC)CCn1c2cc3c(cc2c(=O)c2cccnc21)OCCO3`, the GI50 with MDA-MB-435, in the assay with A549, in the assay with NCI/ADR-RES, in the assay on TK-10, in the assay with UACC-257 and in the assay on SK-OV-3 was > 10 µM (inactive) throughout. For the same compound, the GI50 in the assay on U-251 was > 10 µM (inactive); in the assay with PC-3, > 10 µM (inactive); in the assay on A498, 0.0912 µM (active); in the assay on SNB-75, > 10 µM (inactive); in the assay with Hs-578T, > 10 µM (inactive); in the assay with T47D, > 10 µM (inactive). Moreover, the GI50 in the assay on UACC-62, with MDA-N, with Malme-3M, in the assay on HOP-62, in the assay on M14 and with BT-549 was > 10 µM (inactive) throughout. Moreover, the GI50 in the assay with NCI-H522 is > 10 µM (inactive).

These data come from ChEMBL document CHEMBL1201862, “PubChem BioAssay data set” (2004).
